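The compound was tested at five concentrations on cells cultured in 96-well plates, with a 48-hour exposure period. GI50: concentration for 50% inhibition of growth.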 Calls of active or inactive are those of the source. Cut-off read from the data, not from the text of the source: active = GI50 up to about 1.1 µM and inactive = higher.
Assays:
Assay in all cases: DTP human tumour cell line panel, 48 h
HCT-116 = system: HCT-116
K562 = system: K562
CCRF-CEM = system: CCRF-CEM
SK-OV-3 = system: SK-OV-3
U-251 = system: U-251
NCI-H460 = system: NCI-H460
SR = system: SR
HOP-62 = system: HOP-62
OVCAR-8 = system: OVCAR-8
SK-MEL-28 = system: SK-MEL-28
DMS-114 = system: DMS-114
SF-268 = system: SF-268
TK-10 = system: TK-10
SN12C = system: SN12C
SW-620 = system: SW-620
786-0 = system: 786-0
PC-3 = system: PC-3
MOLT-4 = system: MOLT-4
UACC-62 = system: UACC-62
SF-295 = system: SF-295

Measured: GI50

CC(O)CCC(=O)c1ccoc1 (centres undefined)
inactive: HCT-116 5740 µM | K562 6180 µM | CCRF-CEM 5650 µM | SK-OV-3 6970 µM | U-251 6780 µM | NCI-H460 7230 µM | SR > 9290 µM | HOP-62 6930 µM | OVCAR-8 6840 µM | SK-MEL-28 6930 µM | DMS-114 2610 µM | SF-268 7000 µM | TK-10 6980 µM | SN12C 7180 µM | SW-620 > 9750 µM | 786-0 > 10000 µM | PC-3 6120 µM | MOLT-4 4080 µM | UACC-62 5210 µM | SF-295 7130 µM

CC(=O)NNc1nc(C)c(C(=O)NNC(=O)C(=O)Nc2ccc([N+](=O)[O-])cc2C#N)s1
inactive: HCT-116 > 100 µM | K562 38.1 µM | CCRF-CEM 32.7 µM | SK-OV-3 > 100 µM | U-251 52.7 µM | NCI-H460 > 100 µM | SR 67.1 µM | HOP-62 > 100 µM | OVCAR-8 > 100 µM | SK-MEL-28 > 100 µM | DMS-114 > 100 µM | SF-268 52.2 µM | TK-10 > 100 µM | SN12C > 100 µM | SW-620 55.1 µM | 786-0 67.3 µM | MOLT-4 38.5 µM | UACC-62 > 100 µM | SF-295 > 10 µM

Cn1cnc([N+](=O)[O-])c1Sc1nc(N)nc2c1ncn2C1OC(CO)C(O)C1O (centres undefined)
inactive: HCT-116 3.85 µM | K562 5.13 µM | CCRF-CEM 3.15 µM | SK-OV-3 3.48 µM | U-251 21.7 µM | NCI-H460 1.69 µM | SR 1.53 µM | HOP-62 1.44 µM | OVCAR-8 2.51 µM | SK-MEL-28 28 µM | DMS-114 10.7 µM | SF-268 4.44 µM | TK-10 6.76 µM | SN12C 7.11 µM | SW-620 28.1 µM | 786-0 3.14 µM | PC-3 1.52 µM | MOLT-4 5 µM | UACC-62 2.53 µM | SF-295 3.46 µM

— ChEMBL document CHEMBL1201862, “PubChem BioAssay data set” (2004)
